This is an account of results in patent US11696914B1 (priority 2019, dated 2023).

Where two headings read alike, the source gives them in different places.

For series [1] the following is noted: human, microsomes.
The conditions of series [2]: microsomes.
For series [3] the following is noted: guinea pig, microsomes.
The conditions of series [4]: guinea pig, pH 7.4.
For series [5] the following is noted: human, microsomes, 1 h.
For series [6] the following is noted: mouse, microsomes, 1 h, pH 7.4.
For series [7] the following is noted: mouse, microsomes.
Series [8] is described as follows: in vitro. The following applies: microsomes.
The nature of series [9]: in vitro. Particulars: mouse, microsomes.
The nature of series [10]: in vitro. The following applies: human, microsomes.
Series [11] in a line: in vitro. The following applies: guinea pig, microsomes.
Another series has as its system Sudan virus. The following applies: guinea pig, in vivo; cited from earlier work.
For another series, the system named is SARS-CoV-2. Put plainly: microbe, parasite or virus in culture. The format is cell-based. Particulars: Severe acute respiratory syndrome coronavirus 2, A549-ACE2, read-out: IC50 against SARS-CoV-2.
The test system of another series is EBOV. The following applies: human, in vivo; cited from earlier work.

Turning to `C[C@H]1[C@H](OC(=O)CCC(=O)O)O[C@@H]2O[C@@]3(C)CC[C@H]4[C@H](C)CC[C@@H]1[C@@]24OO3` [Artesunate], the “effect on toxicity of pyronaridine in the checkboard assay” value in the series with HeLa cells is on record as “ameliorates the toxicity of pyronaridine”.
On to `CCN(CC)CCCC(C)Nc1ccnc2cc(Cl)ccc12` (stereo not shown) [Chloroquine], for which the Clint came to 6.9 in series [1], 13.0 in [2], 10.5 in series [3] and 29.3 in [7]. The “Dextromethorphan: compound, t1/2 normalized to dextromethorphan control” value in series [1] amounted to 10.3; in [2], 19.1; in [3], 42.1; in series [7] it was 2.7. For the same molecule, the t1/2 is on record as 201.4 min in series [1], 106.8 min in series [2] (monkey), 132.6 min in series [3] and 47.3 min in series [7]. Moreover, the “Relative Peak Area/Abundance GPLM” value in series [4] is 43.3%. Further, the “Relative Peak Area/Abundance HLM” value in [5] (pH 7.4) was 56.7%. Also, the “Relative Peak Area/Abundance MLM” value in series [6] was determined as 42.5%.
As for `COc1ccc2c(c1)[C@]13CCCC[C@@H]1[C@H](C2)N(C)CC3` [Dextromethorphan], the half-life in “in vitro [8]” (monkey) was 6.69 min; in “in vitro [8]” (non-human primate), 5.7 min; in “in vitro [9]” (Dextromethorphan t1/2) it was 16.2 min; in the series “in vitro [9]” (t1/2 of CYP probe controls) it was 13.2 min; in “in vitro [10]” (Dextromethorphan t1/2), 19.7 min; in “in vitro [10]” (t1/2 of CYP probe controls), 14.8 min. Besides, the half-life worked out at 3.2 min in the series “in vitro [11]” (Dextromethorphan t1/2) and 2.9 min in “in vitro [11]” (t1/2 of CYP probe controls).
With `O=C(O)Cc1ccccc1Nc1c(Cl)cccc1Cl` [Diclofenac], in “in vitro [8]” (monkey), the half-life amounted to 43.1 min. Further, the “t1/2 of CYP probe controls” value in series [7] is on record as 39.6 min.
On to `NC(=O)c1nc(F)c[nH]c1=O` [Favipiravir], for which, in the series on Sudan virus, the “survival rates in Sudan virus-infected guinea pigs” value is on record as 83-100%.
With `COc1ccc2nc3cc(Cl)ccc3c(N)c2n1` [M11], the “Relative Peak Area/Abundance HLM” value in [5] is 0.2%.
For the molecule `Cc1ncc2n1-c1ccc(Cl)cc1C(c1ccccc1F)=NC2` [Midazolam], the half-life in the series “in vitro [8]” (monkey) was 4.3 min; in the series “in vitro [9]” (t1/2 of CYP probe controls), 1.68 min; in “in vitro [10]” (t1/2 of CYP probe controls) it was 2.35 min; in “in vitro [11]” (t1/2 of CYP probe controls), 3.75 min.
On to `COc1ccc2[nH]c([S+]([O-])Cc3ncc(C)c(OC)c3C)nc2c1` (stereo not shown) [Omeprazole], for which the half-life came to 25.5 min in the series “in vitro [8]” (monkey), 23.5 min in the series “in vitro [10]” (t1/2 of CYP probe controls) and 34 min in “in vitro [11]” (t1/2 of CYP probe controls).
As for `CCC(CC)COC(=O)[C@H](C)N[P@](=O)(OC[C@H]1O[C@@](C#N)(c2ccc3c(N)ncnn23)[C@H](O)[C@@H]1O)Oc1ccccc1` [Remdesivir], the IC50 in the series on SARS-CoV-2 is roughly 147 nM.

B1: mAb114 (antibody, chains of the INN, looked up, V domains shown)
VH: EVQLVESGGGLIQPGGSLRLSCAASGFALRMYDMHWVRQTIDKRLEWVSAVGPSGDTTYADSVKGRFAVSRENAKNSLSLQMNSLTAGDTAIYYCVRSDRGVAGLFDSWGQGILVTVSS
VL: DIQMTQSPSSLSASVGDRITITCRASQAFDNYVAWYQQRPGKVPKLLISAASALHAGVPSRFSGSGSGTHFTLTISSLQPEDVATYYCQNYNSAPLTFGGGTKVEIK
On to B1, for which the “overall survival rate in EBOV patients” value in the series on EBOV is 66%.
